Source: PMC6264142, “Microwave Assisted Organic Synthesis (MAOS) of Small Molecules as Potential HIV-1 Integrase Inhibitors” (Molecules, 2011)

Tests used:
HIV-1 integrase = target: T1, HIV-1 integrase (Human immunodeficiency virus type 1 group M subtype B, UniProt P04585); experiment: Overall integrase assay (ELISA); format: biochemical; details: concentration required to inhibit the in vitro overall integrase activity by 50%; read-out: IN enzymatic activity (IC50) Overall
T1 construct: To determine the susceptibility of the HIV-1 integrase enzyme towards different compounds
Excerpt: (§1) Overall integrase assay using an enzyme-linked immunosorbent assay (ELISA): To determine the susceptibility of the HIV-1 integrase enzyme towards different compounds we used enzyme-linked immunosorbent assays. These assays use an oligonucleotide substrate of which one oligonucleotide (5’-[…]-3’) is labeled with biotin at the 3’ end and the other oligonucleotide is labeled with digoxigenin at the 5’ end. For the overall integration assay the second 5’-digoxigenin labeled oligonucleotide is (5’-[…] […]-3’). For the Strand Transfer assay the second oligonucleotide lacks GT at the 3’ end. The integrase enzyme was diluted in 750 mM NaCl, 10 mM Tris pH 7.6, 10% glycerol, and 1 mM β-mercaptoethanol. To perform the reaction, diluted integrase (4 µL, corresponding to a concentration of 1.6 µM) and annealed oligonucleotides (4 µL, 7 nM) were added in a final reaction volume of 40 µL containing 10 mM MgCl2, 5 mM DTT, 20 mM HEPES pH 7.5, 5% PEG, and 15% DMSO. The reaction was carried out for 1 h at 37 °C. Reaction products were denatured with 30 mM NaOH and detected by an immunosorbent assay on avidin-coated plates.

[1] = target: T2, HIV-1 integrase (strand transfer step) (Human immunodeficiency virus type 1 group M subtype B, UniProt P04585); experiment: Strand transfer assay (ELISA); format: biochemical; details: concentration required to inhibit the in vitro strand transfer step by 50%; read-out: IN enzymatic activity (IC50) ST
T2 construct: To determine the susceptibility of the HIV-1 integrase enzyme towards different compounds
Excerpt: as §1

[2] = system: HIV(IIIB) strain in MT-4 cells; experiment: MT-4/MTT assay, HIV-induced cytopathic effect; format: cell-based, HIV-1; details: for EC50: Human immunodeficiency virus 1, IIIB, MT4, 50% protection against CPE of HIV, read-out: EC50 against HIV-1 replication in cell cultures
Description: In vitro anti-HIV and drug susceptibility assays: The inhibitory effect of antiviral drugs on the HIV-induced cytopathic effect (CPE) in human lymphocyte MT-4 cell culture was determined by the MT-4/MTT-assay. This assay is based on the reduction of the yellow 3-(4,5-dimethylthiazol-2-yl)-2,5-diphenyltetrazolium bromide (MTT) by mitochondrial dehydrogenase of metabolically active cells to a blue formazan derivative, which can be measured spectrophotometrically. The 50% cell culture infective dose (CCID50) of the HIV(IIIB) strain was determined by titration of the virus stock using MT-4 cells. For the drug-susceptibility assays, MT-4 cells were infected with 100–300 CCID50 of the virus stock in the presence of fivefold serial dilutions of the antiviral drugs. The concentration of the various compounds that achieved 50% protection against the CPE of the different HIV strains, which is defined as the EC50, was determined. In parallel, the 50% cytotoxic concentration (CC50) was determined.

HIV-IN = system: HIV-IN; design: method as in PMID 19385721, PMID 20112170; details: HIV-IN inhibitor; cited from earlier work

SMILES	IC50 (HIV-1 integrase) [µM]	IC50 [1] [µM]	EC50 [2] [µM]	selectivity index (SI) ([2]; ratio of EC50 and CC50 values)	melting point [°C]	IC50 (HIV-IN) [µM]
COc1cccc2c1c(C(=O)/C=C(\O)C(=O)O)cn2Cc1ccc(F)cc1 [CHI-1043, reference compound]	0.08 ± 0.003	0.14 ± 0.11				
COc1cccc2c1c(C(=O)C=C(O)C(=O)O)cn2Cc1ccccc1C [Compound 7a, 4-[1-(2-Methylbenzyl)-4-methoxy-1H-indol-3-yl]-2-hydroxy-4-oxobut-2-enoic acid]	1.74 ± 1.32	1.07 ± 0.76	1.74	43	164 to 166	
COc1cccc2c1c(C(=O)C=C(O)C(=O)O)cn2Cc1cccc(C)c1 [Compound 7b, 4-[1-(3-Methylbenzyl)-4-methoxy-1H-indol-3-yl]-2-hydroxy-4-oxobut-2-enoic acid]	0.42 ± 0.29	1.36 ± 0.64	2.14		150 to 152	
COc1cccc2c1c(C(=O)C=C(O)C(=O)O)cn2Cc1ccc(C)cc1 [Compound 7c, 4-[1-(4-Methylbenzyl)-4-methoxy-1H-indol-3-yl]-2-hydroxy-4-oxobut-2-enoic acid]	5.76 ± 1.82	8.84 ± 5.6			141 to 143	
COc1cccc2c1c(C(=O)C=C(O)C(=O)O)cn2Cc1cccc(C)c1C [Compound 7d, 4-[1-(2,3-Dimethylbenzyl)-4-methoxy-1H-indol-3-yl]-2-hydroxy-4-oxobut-2-enoic acid]	2.61 ± 1.17	6.79 ± 0.64	1.74		160 to 162	
COc1cccc2c1c(C(=O)C=C(O)C(=O)O)cn2Cc1ccc(C)cc1C [Compound 7e, 4-[1-(2,4-Dimethylbenzyl)-4-methoxy-1H-indol-3-yl]-2-hydroxy-4-oxobut-2-enoic acid]	51.8 ± 33.8	55.9 ± 43.8			143 to 145	
COc1cccc2c1c(C(=O)C=C(O)C(=O)O)cn2Cc1cc(C)ccc1C [Compound 7f, 4-[1-(2,5-Dimethylbenzyl)-4-methoxy-1H-indol-3-yl]-2-hydroxy-4-oxobut-2-enoic acid]	3.83 ± 2.21	9.47 ± 1.06			163 to 165	
COc1cccc2c1c(C(=O)C=C(O)C(=O)O)cn2Cc1c(C)cccc1C [Compound 7g, 4-[1-(2,6-Dimethylbenzyl)-4-methoxy-1H-indol-3-yl]-2-hydroxy-4-oxobut-2-enoic acid]	7.34 ± 1.32	23.5 ± 17.8			173 to 175	
COc1cccc2c1c(C(=O)C=C(O)C(=O)O)cn2Cc1cc(C)cc(C)c1 [Compound 7h, 4-[1-(3,5-Dimethylbenzyl)-4-methoxy-1H-indol-3-yl]-2-hydroxy-4-oxobut-2-enoic acid]	7.69 ± 5.59	5.49 ± 2.67			120 to 122	
COc1cccc2c1c(C(=O)C=C(O)C(=O)O)cn2Cc1cc(C)c(F)c(C)c1 [Compound 7i, 4-[1-(4-Fluoro-3,5-dimethylbenzyl)-4-methoxy-1H-indol-3-yl]-2-hydroxy-4-oxobut-2-enoic acid]	2.17 ± 1.65	5.24 ± 1.34			153 to 155	
Cc1nnc(C(=O)NC(C)(C)c2nc(C(=O)NCc3ccc(F)cc3)c(O)c(=O)n2C)o1 [raltegravir]						0.0068
